Test results as given in paper PMC9967564, “Identification of Bioactive Peptides from a Laminaria digitata Protein Hydrolysate Using In Silico and In Vitro Methods to Identify Angiotensin-1-Converting Enzyme (ACE-1) Inhibitory Peptides” (Marine Drugs, 2023).

How the values were obtained:
[1] = tested on: ACE-II; set-up: method as in PMID 24131339; settings: negative control in studies on marine cryptides; ref [49]; read-out: IC50 for ACE-II inhibition; cited from earlier work
[2] = biological target: T1, ACE-1 (Homo sapiens, UniProt P12821); format: biochemical
T1 construct: purchased Cambridge BioSciences (Cambridge, UK)
T1 sequence (P12821 30-1306): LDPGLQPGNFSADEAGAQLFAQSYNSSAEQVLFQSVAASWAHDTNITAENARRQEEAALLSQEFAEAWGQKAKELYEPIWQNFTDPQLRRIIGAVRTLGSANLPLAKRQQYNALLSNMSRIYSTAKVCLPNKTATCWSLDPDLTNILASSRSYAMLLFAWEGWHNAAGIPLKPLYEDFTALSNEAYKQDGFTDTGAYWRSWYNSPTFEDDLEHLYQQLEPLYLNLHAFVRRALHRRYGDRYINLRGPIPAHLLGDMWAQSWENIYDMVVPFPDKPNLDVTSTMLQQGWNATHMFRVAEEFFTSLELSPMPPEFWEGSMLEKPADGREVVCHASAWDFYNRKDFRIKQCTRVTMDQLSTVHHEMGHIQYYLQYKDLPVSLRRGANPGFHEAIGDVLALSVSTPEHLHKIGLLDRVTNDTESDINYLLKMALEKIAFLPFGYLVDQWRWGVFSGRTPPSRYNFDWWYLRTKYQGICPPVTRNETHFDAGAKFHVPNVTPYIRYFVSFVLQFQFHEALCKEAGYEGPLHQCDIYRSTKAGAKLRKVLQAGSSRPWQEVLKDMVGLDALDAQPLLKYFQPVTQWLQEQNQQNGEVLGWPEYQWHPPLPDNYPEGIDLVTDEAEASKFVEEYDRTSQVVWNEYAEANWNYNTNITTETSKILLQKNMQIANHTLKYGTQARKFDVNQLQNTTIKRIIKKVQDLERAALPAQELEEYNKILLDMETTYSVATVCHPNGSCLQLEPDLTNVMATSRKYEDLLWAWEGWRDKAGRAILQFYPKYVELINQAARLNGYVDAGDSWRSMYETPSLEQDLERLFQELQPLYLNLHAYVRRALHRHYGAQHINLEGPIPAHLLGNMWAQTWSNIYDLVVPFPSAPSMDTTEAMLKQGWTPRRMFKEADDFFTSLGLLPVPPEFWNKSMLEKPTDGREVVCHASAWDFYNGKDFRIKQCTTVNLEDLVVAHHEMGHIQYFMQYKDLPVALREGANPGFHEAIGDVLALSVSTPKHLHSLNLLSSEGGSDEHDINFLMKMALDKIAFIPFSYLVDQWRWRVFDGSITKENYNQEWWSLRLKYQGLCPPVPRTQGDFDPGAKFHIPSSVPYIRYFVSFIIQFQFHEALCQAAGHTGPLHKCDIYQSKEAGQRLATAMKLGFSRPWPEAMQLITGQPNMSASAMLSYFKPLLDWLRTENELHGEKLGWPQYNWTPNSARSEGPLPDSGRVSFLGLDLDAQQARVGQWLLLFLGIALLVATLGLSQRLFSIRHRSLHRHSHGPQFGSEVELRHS

Compound	IC50 [1]	ACE-1 inhibition [2]
CCCCc1nc(Cl)c(CO)n1Cc1ccc(-c2ccccc2-c2nn[nH]n2)cc1 [Losartan]	17.1 to 146 µM	
YIHNNPAKGGLF		91%
